Laboratory results taken from US7524851B2 (Robert Bosch Gesellschaft fur Medizinische Forschung (RBMF), priority 2003, dated 2009).

How the values were obtained:
[1] = test system: primary CD4+ T lymphocytes; experiment: Annexin V/propidium iodide FACS apoptosis of stimulated primary blood CD4+ T lymphocytes; assay type: cell-based, human; settings: for apoptosis induction during the first 2 days after administration: kinetic studies; for apoptosis of primary blood CD4+ T lymphocytes: day 5
Excerpt: Isolation of primary CD4^+ T lymphocytes and lamina propria cells: Human peripheral blood mononuclear cells (PBMCs) from healthy volunteers (25-42 years of age) and patients with Crohn's disease (31-65 years of age) were isolated using Ficoll-Hypaque gradients. PBMCs were further purified using CD4 monoclonal antibodies attached to immunomagnetic beads according to the manufacturer's protocol, followed by treatment with Detachabead (Dynal; Oslo, Norway). In some cases, CD4^+ T cells were further separated by negative selection techniques using CD45RO or CD45RA monoclonal antibodies (PharMingen; Heidelberg, Germany) and immunomagnetic beads (Dynal). […] Lamina propria mononuclear cells (LPMCs) from patients with IBD were isolated from gut specimens using a short-term (5-minute) digestion protocol with collagenase V, hyaluronidase (Sigma-Aldrich; St. Louis, Mo., USA), and DNase (Roche; Mannheim, Germany), as recently described in detail in Holtmann et al., Eur. J. Immunol. 32:3142-3151 (2002). Briefly, specimens were washed in calcium- and magnesium-free HBSS (HBSS-CMF), cut into 0.5-cm pieces, and incubated twice in HBSS containing EDTA (0.37 mg/ml) and DTT (0.145 mg/ml) at 37° C. for 15 minutes, followed by subsequent digestion for 5 minutes with collagenase V 400 (1 mg/ml), deoxyribonuclease (0.1 mg/ml DNase), and hyaloronidase (0.1 mg/ml) in a shaking incubator at 37° C. The digested tissue was washed twice in RPMI medium containing 10% FCS and centrifuged. The tissue was finally mechanically homogenized (DAKO homogenizer; Hamburg, Germany) for 4 minutes, and cells were filtered through a sterile 40-μm cell strainer (Falcon; San Diego, Calif., USA).
Such CD28 costimulation is known to prevent apoptosis of primary T cells during T cell receptor (TCR) stimulation through activation of bcl-x, and NF-κB (Noel et al., J. Immunol. 157:636-647 (1996); Radvanyi et al., J. Immunol. 156:1788-1798 (1996); Khoshnan et al., J. Immunol. 165:1743-1754 (2000)). […] In addition, recombinant IL-2 (R&D Systems; Wiesbaden, Germany) was used at a final concentration of 40 U/ml in all experiments. Lamina propria T lymphocytes were stimulated with antibodies to CD2 (4 μg/ml; Immunotech; Marseille, France) and CD28 (1 μg/ml). […] To block CD95L-mediated (FasL-mediated) apoptosis, the NOK-1 antibody (4 μg/ml, PharMingen) was used whose Fab fragments bind to human CD95L (FasL) (Jodo et al., J. Immunol. 165:5487-5494 (2000)). Recombinant human FasL (Alexis Biochemicals; Heidelberg, Germany) was used as a positive control for the NOK-1 antibody (10 μg/ml).
For FACS analysis, apoptotic cells were detected by staining with annexin V and propidium iodide using the Annexin V FITC Apoptosis Detection Kit I (PharMingen) (Atreya et al., Nat. Med. 6:583-588 (2000)). In brief, T cells were washed twice in PBS, and the pellet was resuspended in annexin V binding buffer (PharMingen) at a concentration of 10^6 cells per milliliter. Annexin V FITC and propidium iodide were added (5 ill of each per 10^5 cells). Samples were gently mixed and incubated for 15 minutes at room temperature in the dark before FACS analysis. To verify the results obtained with the annexin V/propidium iodide staining, analysis of T cells displaying DNA fragmentation was also determined by the Nicoletti technique, as described in (Nicoletti et al., J. Immunol. Methods 139:271-279 (1991)). 10^6 T cells were fixed in 70% ethanol, washed once in HBSS, resuspended in 1 ml of HBSS and 1 ml of phosphate citric acid buffer (0.2 mol/l Na2PO4 and 0.004 mol/l citric acid [pH 7.8]), and incubated at room temperature for 5 minutes. After centrifugation, cells were resuspended in 1 ml of HBSS containing 20 μg/ml propidium iodide and 10 U DNase-free RNase A and incubated at room temperature for 30 minutes. Finally, cells were analyzed on a FACScan flow cytometer. Because of the fragmentation of DNA, apoptotic cells appear as hypodiploid in the DNA histogram.

[2] = test system: STAT-3; experiment: Rac1-bound STAT-3 (PAK pull-down, immunoblot); assay type: cell-based, human; settings: primary T cells, 3 days
Protocol: FIG. 7. […] Purified CD4^+ T lymphocytes were stimulated with IL-2 and antibodies to CD3 or IL-2 plus antibodies to CD3 and CD28 for 3 days. […] GTP-bound Ras (Ras-GTP) was analyzed using Raf RGD to determine Ras activation. […] Similarly, Ras was obtained using Raf RGD agarose followed by analysis of [^3H]GTP-bound Ras by scintillation counting.
Cell lysates were incubated with 10 μg/ml PAK-1 agarose (Rac assays) or 10 μg/mg Raf RBD agarose (Ras assay) for 60 minutes (Rac assays) or 30 minutes (Ras assays) at 4° C. Agarose beads were collected by centrifugation followed by denaturation, boiling of the samples, and SDS-PAGE analysis.

[3] = test system: primary CD4+ T lymphocytes; experiment: Mitochondrial membrane potential (JC-1, FACS); settings: 5 days
[4] = stimulated through the TCR/CD3 complex plus CD28
[5] = stimulated with anti-CD3 antibodies alone

| SMILES | apoptosis induction during the first 2 days after administration [1] | apoptosis of primary blood CD4+ T lymphocytes [1, 4] | apoptosis of primary blood CD4+ T lymphocytes [1, 5] | Rac1-bound STAT-3 [2] | ΔΨm in primary T cells [3] | concentration at which T cell apoptosis occurred ([1]; FIGS. 1a and 1b) [µM] | apoptosis of already preactivated T lymphocytes ([1]; drug added at day 5, annexin V/propidium iodide at day 10) |
| --- | --- | --- | --- | --- | --- | --- | --- |
| Sc1ncnc2nc[nH]c12 [6-MP, 6-mercaptopurine] | no apoptosis induction | induced apoptosis | no apoptosis | Downregulation | loss of ΔΨm |  |  |
| Cn1cnc([N+](=O)[O-])c1Sc1ncnc2nc[nH]c12 [azathioprine, Azathioprine] | no apoptosis induction | induced apoptosis | no apoptosis | reduced | loss of ΔΨm | 5 | induced apoptosis |
